Source: patent US7265139B2, “RXR activating molecules” (Incyte San Diego Inc., priority 2001, dated 2007)

Assays:
[1] = molecular target: T1, RXR receptor (Homo sapiens, UniProt P19793); assay: RXR activation (transient transfection reporter assay); assay type: cell-based; settings: 1 μM compared to 9-cis-RA at equal concentration
T1 construct: expressed in transfected cells
T1 sequence (P19793 1-462): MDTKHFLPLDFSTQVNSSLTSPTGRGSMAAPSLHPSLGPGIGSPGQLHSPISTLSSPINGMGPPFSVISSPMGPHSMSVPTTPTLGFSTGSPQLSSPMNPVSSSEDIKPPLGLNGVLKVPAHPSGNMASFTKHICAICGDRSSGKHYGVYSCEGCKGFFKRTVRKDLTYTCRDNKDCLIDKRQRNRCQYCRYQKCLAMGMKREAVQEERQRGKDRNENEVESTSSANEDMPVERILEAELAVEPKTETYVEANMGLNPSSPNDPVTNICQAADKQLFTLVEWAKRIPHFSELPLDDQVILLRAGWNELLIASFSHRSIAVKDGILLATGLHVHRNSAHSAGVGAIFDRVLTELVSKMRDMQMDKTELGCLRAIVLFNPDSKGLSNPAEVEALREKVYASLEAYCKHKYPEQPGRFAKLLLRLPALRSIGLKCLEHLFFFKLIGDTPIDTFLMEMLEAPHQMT
Description: RXR agonists activate the RXR receptor when interacting with RXR by binding to its binding pocket. This activation can be independent of whether the agonist, while interacting with portions of the ligand binding pocket, also interacts with side pocket 1. Activation, also often referred to as transcriptional activation, of RXR by agonists can be measured by a number of commonly used assays where the effect of the agonist ligand interacting with the RXR ligand binding pocket is to stimulate or induce transcription of a gene or genes in a cell. In one particular embodiment, transient transfection experiments (as described essentially by Zhang, et al. (1996) Negative Regulation of Peroxisome Proliferator—Activated Receptor—γ Gene Expression Contributes to the Antiadipogenic effects of Tumor Necrosis Factor—α. Mol. Endo. 10:1457-1456) can be used. In these cases, full length RXR proteins are expressed in living cells. Alternatively, hybrid proteins that contain a portion of another DNA binding domain and the ligand binding portion of the human RXRα receptor can be expressed in living cells instead of the full length RXR protein. Such hybrid proteins can bind to and activate specific reporter genes introduced into the same living cell and activation of such reporter genes is measured. The assays described here are very commonly used today by people skilled in the art of molecular biology experimenting. Transient transection assays are often used instead of ligand binding assays and can serve to measure or estimate an affinity of an RXR agonist ligand for RXR protein. The effective dose fifty (ED50, also called EC50) is the concentration of the ligand necessary to lead to one half maximal activation of the reporter gene in a living cell. Compounds that show 60% of the activity of the agonist 9-cis retenoic acid at 10^−6 M can be considered an RXR activator/agonist. Compounds which show 70% 80% 90% of the activity of the agonist 9-cis retinoic acid are also provided.
To confirm that the computer modeling/design of a compound does result in an RXR activator or RXR agonist, i.e. a compound that leads to RXR activation or transcriptional activation, commonly used assays can be applied, where the effect of the agonist or activator, interacting with the RXR ligand binding pocket is to stimulate or induce transcription of a gene or genes in a cell. In one particular embodiment, transient transfection experiments (as described essentially by Zhang, et al. (1996) Negative Regulation of Peroxisome Proliferator—Activated Receptor—γ Gene Expression Contributes to the Antiadipogenic effects of Tumor Necrosis Factor—α. Mol. Endo. 10:1457-1456) can be used. In these cases, full length RXR proteins are expressed in living cells. Alternatively, hybrid proteins that contain a portion of another DNA, binding domain and the ligand binding portion of the human RXRα receptor can be expressed in living cells instead of the fall length RXR protein. Such hybrid proteins can bind to and activate specific reporter genes introduced into the same living cell and activation of such reporter genes is measured (Brand, A. H. & Perrimon, 1993, Development, 118:401-415; Moya-Camarena, S. Y. et.al., 1999, J. Lipid Res., 40:1426:1433; Yi, Y. W. et al., 2000, Biochem. Biophys. Res. Commun., 272:193-198, each are herein incorporated by reference at least for material related to reporter assays). These assays not only measure binding of the ligand to its target, which could also be measured by an in vitro binding assay, but also measure the agonistic or activator activity of the compound. In such an assay, new compounds are compared to a standard activator like compound I or the natural agonist of RXR: 9-cis retinoic acid (see Example 7). For instance, all compounds that show at a given concentration at least 60% of the activity of 9-cis retinoic acid can be considered useful activators.

[2] = test system: BALB/c mice; assay: Effect on serum triglyceride levels in wild type BALB/c mice; assay type: in vivo, mouse; settings: FIG. 12
Method: The animals were treated with a single daily oral dose of the test compound suspended in sesame oil (dose volume of 5 ml/kg). […], Animas treated with 10 and 30 mg/kg of Compound 1, which are doses that are 30 and 100 times the efficacious does in diabetic db/db mice, respectively, caused no increase in serum triglyceride levels compared to vehicle treated control animals.
Test compounds are tested in wild type mice at 10-100 times the efficacious dose in diabetic mice. Typically, adult male BALB/c mice are housed in a fixed 12—12-hr artificial light-dark cycle, and maintained on a standard rodent diet. The animals are treated with a single daily oral dose of the test compound suspended in sesame oil (dose volume of 5 ml/kg) as also described in the examples. Approximately two weeks later the animals are bled from the tail vein, then necropsied following sacrifice by carbon dioxide asphyxiation. Several serum biochemical parameters are measured. Of special significance is the effect the selected compounds have on serum triglyceride levels compared to vehicle treated control animals.
For these studies, adult male BALB/c mice were housed in a fixed 12—12-hr artificial light-dark cycle, and maintained on a standard rodent diet. The animals were treated with a single daily oral dose of the test compound suspended in sesame oil (dose volume of 5 ml/kg).

## Cc1cc2c(cc1-c1cc(C=C3SC(=O)NC3=O)ccc1OC(F)(F)F)C(C)(C)CCC2(C)C [Compound 1]
[1]
  RXR Activation: 110%
[2]; 10 and 30 mg/kg, daily oral, 14 days
  serum triglyceride levels compared to vehicle treated control animals: no increase
[2]; 10 and 30 mg/kg/day for 10 days
  triglyceride levels compared to vehicle treated controls: does not change
